Source: patent publication US20240384268A1, “Oligonucleotides” (Hudson Institute of Medical Research, priority 2021, published 2024)
In the oligonucleotide strings, read from the 5' end, every base follows the letter of its sugar. An asterisk marks phosphorothioate; unmarked linkages are phosphodiester. Other units and linkages are bracketed, terminal groups are in braces. A string of capitals states the bases alone. d = 2'-deoxy (DNA); m = 2'-O-methyl

Legend:
TLR8 = biological target: T1, TLR8 (Homo sapiens, UniProt Q9NR97); assay: R848-driven IP-10 production in THP-1 cells (TLR8); type: cell-based; design: expressed in transfected cells; dose or concentration left out as unconfirmed; conditions: R848 7 h; for effect of 3-mer 2′OMe oligos on R848-driven IP-10 in THP-1 (in words): 3-mer oligos overnight; for TLR8 potentiation in THP-1, short 2′OMe oligos (IP-10; in words): oligos overnight
T1 sequence (Q9NR97 27-1041): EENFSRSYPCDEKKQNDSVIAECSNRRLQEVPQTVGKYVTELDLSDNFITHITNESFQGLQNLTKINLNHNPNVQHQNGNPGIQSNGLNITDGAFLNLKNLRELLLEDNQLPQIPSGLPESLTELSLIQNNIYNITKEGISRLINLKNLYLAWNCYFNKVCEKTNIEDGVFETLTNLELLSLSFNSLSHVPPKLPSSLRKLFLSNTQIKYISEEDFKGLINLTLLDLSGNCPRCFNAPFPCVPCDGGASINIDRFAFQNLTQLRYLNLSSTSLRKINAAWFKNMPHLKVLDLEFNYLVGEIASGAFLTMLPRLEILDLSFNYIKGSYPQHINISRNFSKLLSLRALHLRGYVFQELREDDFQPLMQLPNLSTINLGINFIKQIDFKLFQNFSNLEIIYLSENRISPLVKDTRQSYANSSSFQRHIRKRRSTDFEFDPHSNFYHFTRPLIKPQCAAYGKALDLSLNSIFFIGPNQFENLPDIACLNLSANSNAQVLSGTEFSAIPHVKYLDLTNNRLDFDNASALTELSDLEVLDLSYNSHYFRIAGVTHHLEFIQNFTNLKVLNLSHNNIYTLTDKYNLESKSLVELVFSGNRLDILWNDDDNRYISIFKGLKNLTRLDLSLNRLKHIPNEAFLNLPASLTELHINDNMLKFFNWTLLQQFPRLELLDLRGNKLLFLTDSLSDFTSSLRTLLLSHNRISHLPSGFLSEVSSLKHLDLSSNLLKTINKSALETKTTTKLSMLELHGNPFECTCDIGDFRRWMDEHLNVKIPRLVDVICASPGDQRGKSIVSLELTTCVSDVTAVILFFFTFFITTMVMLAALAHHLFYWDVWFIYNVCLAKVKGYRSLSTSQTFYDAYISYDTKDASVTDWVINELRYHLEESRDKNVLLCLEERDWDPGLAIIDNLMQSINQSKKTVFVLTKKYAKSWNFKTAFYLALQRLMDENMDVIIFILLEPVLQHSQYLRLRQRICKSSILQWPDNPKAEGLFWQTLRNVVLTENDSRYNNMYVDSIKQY
Procedure: FIG. 34: THP-1 cells were pre-treated overnight with […] ASOs, prior to R848 stimulation for 7h. […] All ASO conditions are with R848 co-stimulation.
FIG. 35: THP-1 cells were pre-treated overnight with indicated concentrations of ASOs, prior to R848 stimulation for 7h. […] All ASO conditions are with R848 co-stimulation. SEM and two-way ANOVA with Tukey's multiple comparisons to 660-3b condition are shown.
FIG. 36: A, B, C) HEK-TLR8 cells expressing an NF-κB-luciferase reporter were pre-treated 40 min with […] oligos, prior to Motolimod stimulation (400 nM [B] or 600 nM [A and C] overnight). Data shown are averaged from 2 (B) independent or a single experiment (A and C), completed with 3 biological triplicate. The NF-κB-luciferase values are reported to the Motolimod condition. D) THP-1 cells were pre-treated overnight with […] 3-mer oligos, prior to R848 stimulation ([…]) for 7h. IP-10 levels were measured by ELISA. Data shown are averaged from a single experiment completed with 3 biological triplicate, reported to the R848 only condition. A-E) All oligo conditions are with Motolimod or R848 co-stimulation.
Human IP-10 and IFN-β levels were measured using supernatants from the different cultures and were quantified using IP-10 (BD Biosciences, #550926) or IFN-β (PBL assay science, #41415-1) ELISA kits respectively, according to the manufacturers' protocol. Tetramethylbenzidine substrate (Thermo Fisher Scientific) was used for quantification of the cytokines on a Fluostar OPTIMA (BMG LABTECH) plate-reader.

TLR7 = biological target: T2, TLR7 (Mus musculus, UniProt P58681); assay: Guanosine-induced TNFα in primary BMDMs; type: cell-based; design: endogenous in cells; host or cells: primary BMDMs from wild-type mice; conditions: WT primary BMDMs; 200 nM ASO 30 min; 500 μM Guanosine overnight
T2 sequence (P58681 27-1050): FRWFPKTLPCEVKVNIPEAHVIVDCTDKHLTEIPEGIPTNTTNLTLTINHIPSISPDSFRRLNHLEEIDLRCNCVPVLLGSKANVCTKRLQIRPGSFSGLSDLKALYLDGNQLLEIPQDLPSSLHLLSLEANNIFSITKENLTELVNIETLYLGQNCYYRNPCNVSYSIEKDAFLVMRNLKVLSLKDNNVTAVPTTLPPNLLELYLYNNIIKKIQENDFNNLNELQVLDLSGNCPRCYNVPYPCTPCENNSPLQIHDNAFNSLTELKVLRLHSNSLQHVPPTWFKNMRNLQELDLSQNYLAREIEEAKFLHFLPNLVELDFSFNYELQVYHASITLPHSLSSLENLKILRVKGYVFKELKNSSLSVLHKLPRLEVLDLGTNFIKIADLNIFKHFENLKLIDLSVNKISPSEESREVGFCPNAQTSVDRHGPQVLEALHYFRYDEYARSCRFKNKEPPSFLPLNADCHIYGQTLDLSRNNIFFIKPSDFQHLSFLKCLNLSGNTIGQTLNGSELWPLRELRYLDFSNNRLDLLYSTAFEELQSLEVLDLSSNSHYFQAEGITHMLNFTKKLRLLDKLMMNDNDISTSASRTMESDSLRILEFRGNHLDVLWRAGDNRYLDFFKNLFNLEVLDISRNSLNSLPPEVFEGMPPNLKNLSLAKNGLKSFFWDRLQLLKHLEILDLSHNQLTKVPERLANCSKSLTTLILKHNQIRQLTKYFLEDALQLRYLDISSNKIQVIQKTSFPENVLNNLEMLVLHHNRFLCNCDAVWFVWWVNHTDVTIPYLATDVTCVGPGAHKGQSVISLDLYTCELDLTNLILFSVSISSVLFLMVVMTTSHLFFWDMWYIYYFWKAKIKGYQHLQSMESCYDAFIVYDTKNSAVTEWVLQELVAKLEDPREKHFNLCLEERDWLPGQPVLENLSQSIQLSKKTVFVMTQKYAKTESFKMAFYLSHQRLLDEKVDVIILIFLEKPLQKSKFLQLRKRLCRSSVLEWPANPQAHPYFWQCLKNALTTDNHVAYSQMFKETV

Substance	effect of 3-mer 2′OMe oligos on R848-driven IP-10 in THP-1 (in words) (TLR8)	TNFα production induced by guanosine (in words) (TLR7)	also measured
mGmUmC (mG*mU*mC) [GUC, 3-mer 2′OMe PS oligo]	robustly inhibitory	–	–
mGmAmU (mG*mA*mU) [GAU, 3-mer 2′OMe PS oligo]	robustly the most potent	–	–
mC*mG*mU*T*T*C*C*C*C*C*C*C*C*C*C*C*C*C*C*C (CGUTTCCCCCCCCCCCCCCC; antisense; sugars from the 5' end m3 d17, all phosphorothioate, methylation of C not given here) [[C2]Mut1-v3-dC]	–	did not	–
mGmUmU (mG*mU*mU) [GUU, 3-mer 2′OMe PS oligo]	robustly inhibitory	–	–
mGmUmA (GUA; all 2'-O-methyl, backbone not given here; further chemistry not fully specified) [shortMut1-3b]	robustly inhibitory	–	–
mGmUmG (mG*mU*mG) [GUG, 3-mer 2′OMe PS oligo]	robustly inhibitory	–	–
mG*mC*mG*mG*mU*A*T*C*C*A*T*G*T*C*C*mC*mA*mG*mG*mC (mG*mC*mG*mG*mU*dA*dT*dC*dC*dA*dT*dG*dT*dC*dC*mC*mA*mG*mG*mC; antisense) [C2-Mut1]	–	significantly inhibiting TNFα levels	–
mCmUmU (antisense mC*mU*mU) [660-3]	–	–	TLR8 potentiation in THP-1, short 2′OMe oligos (IP-10; in words) (TLR8): did not work; TLR8 potentiation in THP-1, short 2′OMe oligos (IP-10; in words) (TLR8; listed as CUU): did not potentiate TLR8
mUmCmG (antisense mU*mC*mG) [660-3b]	–	–	TLR8 potentiation in THP-1, short 2′OMe oligos (IP-10; in words) (TLR8): significantly potentiated TLR8 sensing
mG*mG*mU*A*T*C*C*C*C*C*C*C*C*C*C*C*C*C*C*C (GGUATCCCCCCCCCCCCCCC; antisense; sugars from the 5' end m3 d17, all phosphorothioate, methylation of C not given here) [[C2]Mut1-dC]	–	significantly inhibiting TNFα levels	–
